The text below walks through data of PMC10946806, “Development of Bifunctional, Raman Active Diyne‐Girder Stapled α‐Helical Peptides” (Chemistry (Weinheim an Der Bergstrasse, Germany), 2023).

Structures are written as SMILES. Positions of bridges follow the written chain, without caps; N, C: chain ends. Non-standard residues stand in square brackets, D forms with d. Residues, ends and D or L forms follow the SMILES beside them. *: point of attachment. FITC = O=C1OC2(c3ccc(O)cc3Oc3cc(O)ccc32)c2ccc(NC(=S)*)cc21; R8 = C=CCCCCCC[C@@](C)(N)C(=O)O; S5 = C=CCCC[C@](C)(N)C(=O)O; Nle = CCCC[C@H](N)C(=O)O; Ahx = NCCCCCC(=O)O

Turning to `CCCC[C@@H]1NC(=O)[C@H](CCCNC(=N)N)NC(=O)[C@H](C)NC(=O)[C@H](Cc2ccc(O)cc2)NC(=O)[C@](C)(NC(=O)[C@H](CCCCN)NC(=O)[C@H](C)NC(=O)CCCCCNC(=S)Nc2ccc3c(c2)C(=O)OC32c3ccc(O)cc3Oc3cc(O)ccc32)CCCCCC/C=C\CCC[C@@](C)(C(=O)N[C@@H](CC(C)C)C(=O)N[C@@H](CCCCN)C(=O)N[C@@H](CCC(=O)O)C(=O)N[C@H](C(=O)N[C@@H](C)C(=O)N[C@@H](CCCCN)C(N)=O)[C@@H](C)CC)NC(=O)[C@H](CCCNC(=N)N)NC(=O)CNC1=O` ({FITC-Ahx}-AK[R8]YAR[Nle]GR[S5]LKEIAK-NH2; staple (Z) 3-10), the % peptide remaining after 4 h with chymotrypsin is above 92%.

In turn, `CCCC[C@@H]1NC(=O)[C@H](CCCNC(=N)N)NC(=O)[C@H](C)NC(=O)[C@H](Cc2ccc(O)cc2)NC(=O)[C@](C)(NC(=O)[C@H](CCCCN)NC(=O)[C@H](C)NC(=O)CCCCCNC(=S)Nc2ccc3c(c2)C(=O)OC32c3ccc(O)cc3Oc3cc(O)ccc32)CCCCCC/C=C/CCC[C@@](C)(C(=O)N[C@@H](CC(C)C)C(=O)N[C@@H](CCCCN)C(=O)N[C@@H](CCC(=O)O)C(=O)N[C@H](C(=O)N[C@@H](C)C(=O)N[C@@H](CCCCN)C(N)=O)[C@@H](C)CC)NC(=O)[C@H](CCCNC(=N)N)NC(=O)CNC1=O` ({FITC-Ahx}-AK[R8]YAR[Nle]GR[S5]LKEIAK-NH2; staple (E) 3-10) gave a % peptide remaining after 4 h with chymotrypsin above 92%.

Consider `CCCC[C@@H]1NC(=O)[C@H](CCCNC(=N)N)NC(=O)[C@H](C)NC(=O)[C@H](Cc2ccc(O)cc2)NC(=O)[C@@](C)(NC(=O)[C@H](CCCCN)NC(=O)[C@H](C)NC(=O)CCCCCNC(=S)Nc2ccc3c(c2)C(=O)OC32c3ccc(O)cc3Oc3cc(O)ccc32)CCCCCC#CC#CCCCCC[C@@](C)(C(=O)N[C@@H](CC(C)C)C(=O)N[C@@H](CCCCN)C(=O)N[C@@H](CCC(=O)O)C(=O)N[C@H](C(=O)N[C@@H](C)C(=O)N[C@@H](CCCCN)C(N)=O)[C@@H](C)CC)NC(=O)[C@H](CCCNC(=N)N)NC(=O)CNC1=O`, for which the % peptide remaining after 4 h with chymotrypsin was above 92%.
